Data: PMC10439310 (Nature microbiology, 2022)

Test system: inosine-5’-monophosphate dehydrogenase (IMPDH, gene: guaB)
Assay type: binding, Bacillus anthracis
Conditions: [32P]-Ap4A, lysates of E. coli overexpressing B. anthracis ORFs

With Nc1ncnc2c1ncn2[C@@H]1O[C@H](COP(=O)(O)OP(=O)(O)OP(=O)(O)OP(=O)(O)OC[C@H]2O[C@@H](n3cnc4c(N)ncnc43)[C@H](O)[C@@H]2O)[C@@H](O)[C@H]1O [Ap4A, diadenosine 5’,5’’’-P1,P4-tetraphosphate] the “binding in DRaCALA screen (in words)” value was “putative Ap4A-binding partner”.
